Results: BindingDB's records for patent US11691969 (Ribon Therapeutics, 2023)

Biological target: T1, Protein mono-ADP-ribosyltransferase TIPARP (Homo sapiens, UniProt Q7Z3E1)
T1 sequence (Q7Z3E1 whole entry): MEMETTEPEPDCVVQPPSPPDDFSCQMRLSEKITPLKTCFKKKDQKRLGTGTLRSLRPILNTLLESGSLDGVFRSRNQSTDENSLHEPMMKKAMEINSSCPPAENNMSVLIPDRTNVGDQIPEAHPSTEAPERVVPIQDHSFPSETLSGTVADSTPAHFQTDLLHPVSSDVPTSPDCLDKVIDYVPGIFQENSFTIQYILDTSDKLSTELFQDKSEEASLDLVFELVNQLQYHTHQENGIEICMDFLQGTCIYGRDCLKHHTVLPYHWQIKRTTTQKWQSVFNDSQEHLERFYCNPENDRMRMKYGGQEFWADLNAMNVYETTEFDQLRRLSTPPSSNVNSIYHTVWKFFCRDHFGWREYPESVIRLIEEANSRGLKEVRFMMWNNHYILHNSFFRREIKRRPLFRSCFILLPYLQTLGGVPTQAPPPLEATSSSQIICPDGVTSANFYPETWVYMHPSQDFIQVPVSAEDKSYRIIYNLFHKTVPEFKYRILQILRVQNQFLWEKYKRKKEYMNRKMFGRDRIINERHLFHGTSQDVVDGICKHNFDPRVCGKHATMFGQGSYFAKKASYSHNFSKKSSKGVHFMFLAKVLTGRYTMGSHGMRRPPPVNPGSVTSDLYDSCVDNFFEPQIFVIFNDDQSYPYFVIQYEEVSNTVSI
Assay: Enzymatic Assay
Procedure: Displacement of Probe A, a biotinylated probe binding to the TIPARP active site, was measured using a time-resolved fluorescence energy transfer (TR-FRET) assay. 20 nL of a dose response curve of each test compound was spotted in black 384-well polystyrene proxiplates (Perkin Elmer) using a Mosquito (TTP Labtech). Reactions were performed in a 8 μl volume by adding 6 μL of TIPARP and Probe A in assay buffer (20 mM HEPES pH=8, 100 mM NaCl, 0.1% bovine serum albumin, 2 mM DTT and 0.002% Tween20), incubating with test compound at 25° C. for 30 min, then adding 2 μL of ULight-anti 6×His and LANCE Eu-W1024 labeled streptavidin (Perkin Elmer). The final concentrations of TIPARP and Probe A were 6 nM and 2 nM, respectively. The final concentration of ULight-anti 6×His and LANCE Eu-W1024 labeled streptavidin were 4 nM and 0.25 nM, respectively. Reactions were incubated at 25° C. for an additional 30 min, then read on an Envision platereader equipped with a LANCE/DELFIA top mirror (Perkin Elmer) using excitation of 320 nm and emission of 615 nm and […] with a […]. The ratio of the 665/615 nm emission were calculated for each well to determine the amount of complex of TIPARP and Probe Ain each well. […]

IC50: in the range around 0.55 µM
Compound: C[C@@H](CO[C@H]1CCN(C2CCN(c3ncc(C(F)(F)F)cn3)CC2)C1=O)Nc1cn[nH]c(=O)c1Br [US11691969, Example 23]
